Test results reported in article PMC9237960, “Identification of a New Antifungal Peptide W1 From a Marine Bacillus amyloliquefaciens Reveals Its Potential in Controlling Fungal Plant Diseases” (Frontiers in Microbiology, 2022).
Values after ≈ are worked out from the molar mass of the structure shown. Peptide text beside a SMILES is read from it.

Tested on: F. oxysporum
Type: cell-based, Fusarium oxysporum
Details: pH 9.73
Procedure: The minimum inhibitory concentration (MIC) of W1 against F. oxysporum and S. sclerotiorum was determined using the paper disk diffusion method ([Wen et al., 2014]; [Rao et al., 2015]). In brief, the purified W1 was diluted into 20 mM piperazine buffer (pH 9.73) with final concentrations of 0.464, 0.232, 0.116, 0.058, and 0.029 μg/μl, respectively. On paper disks placed 2 cm from the hyphal margin of fungus on a PDA plate, 60 μl of serially diluted samples were added. Later, the plate was incubated at 30°C for 24–48 h. The MIC was determined as the lowest concentration of W1 that could inhibit visible mold growth and was calculated as the total peptide concentration added to each paper disk (microgram per disk). The piperazine buffer (20 mM) was used as the blank control. All assays were repeated three times independently.

## CC[C@H](C)[C@H](NC(=O)[C@H](CC(C)C)NC(=O)[C@H](CC(C)C)NC(=O)[C@H](Cc1ccccc1)NC(=O)[C@H](Cc1ccc(O)cc1)NC(=O)[C@H](CC(C)C)NC(=O)[C@@H](NC(=O)[C@H](C)NC(=O)[C@H](Cc1ccccc1)NC(=O)[C@H](CCSC)NC(=O)[C@H](CC(C)C)NC(=O)[C@@H](NC(=O)[C@@H](NC(=O)[C@@H]1CCCN1C(=O)[C@@H](NC(=O)[C@@H](NC(=O)[C@@H](NC(=O)CN)[C@@H](C)O)[C@@H](C)CC)C(C)C)[C@@H](C)CC)[C@@H](C)CC)C(C)C)C(=O)N[C@@H](CCCNC(=N)N)C(=O)N1CCC[C@H]1C(=O)N[C@@H](CCC(N)=O)C(=O)O [W1] (H-GTIVPIILMFAVLYFLLIRPQ-OH)
  MIC against F. oxysporum: 58 µg/mL (≈ 24 µM)
